Key:
Assay type in all cases: cell-based
[1] = test system: senescent human dermal fibroblast (HDF) M11 cells; test: Relative proliferation rate of senescent cells (SYBR Green I DNA quantification); conditions: 5 μM, about 3 weeks, vs DMSO negative control
Protocol: (§1) In order to examine whether senescent cells proliferate in response to treatment with BRAF inhibitors, human dermal fibroblast (HDF) M11 cells taken from a child are cultured in Dulbecco's Modified Eagle's Medium (DMEM) containing a high concentration of glucose, glutamine, and pyruvate, and 10% (v/v) fetal bovine serum (FBS), and 1× penicillin/streptomycin at about 37° C. and 5% CO2 atmosphere, thereby obtaining senescent cells. As for the senescent cells, cells that are passaged 35 times and whose doubling time is about 10 days or longer are used.
The prepared senescent cells are inoculated at a density of 1000 cells/well in a 96-well plate. The BRAF inhibitor is added to the inoculated cells at a final concentration of 5 μM. SB590885, vemurafenib (PLX4032, RG7204), TAK-632, CEP-32496, GDC-0879, PLX-4720, ZM 336372, Sorafenib tosylate, Sorafenib, GW5074, Dabrafenib (GSK2118436), AZ 628, RAF265 (CHIR-265), and NVP-BHG712 are used as BRAF inhibiting drugs. Cells treated with dimethyl sulfoxide (DMSO) (Sigma-Aldrich) alone are used as a negative control group. The medium is replaced with a fresh medium containing the drug or DMSO alone once every four days. About 3 weeks after initial addition of the drug, 0.1% (w/v) SYBR Green I (Life Technologies, Cat. No. S-7563) is used to quantify DNA, and the number of cells is calculated from the DNA quantity measured.
The number of the senescent cells in the drug-treated group is compared to the number of the cells in the negative control group so as to calculate a relative proliferation rate. The relative proliferation rates of senescent cells treated with BRAF inhibitors to that of the negative control group are shown in FIG. 1.
The senescent cells prepared as described in 1 are inoculated at a density of 1000 cells/well in a 96-well plate. […]
Then, SYBR Green I (Life Technologies, Cat. No. S-7563) is used to quantify DNA in the senescent cells thus cultured, and the number of cells is calculated from the DNA quantity measured. […]

[2] = test system: senescent human dermal fibroblast (HDF) M11 cells; test: Lipofuscin accumulation by autofluorescence (FACS); conditions: 0.1 μM, about 3 weeks, vs DMSO
Protocol: as §1
(§2) As described in 1, 0.1 μM SB590885 is added to the prepared senescent cells, which are cultured in the presence of SB590885 for about 3 weeks. Cells treated with DMSO (Sigma-Adrich) alone are used as a negative control group.
As lipofuscin in senescent cells emits autofluorescence, accumulation of lipofuscin is analyzed by measuring the fluorescent radiation having a wavelength of 520 nm while irradiating the senescent cells with rays having a wavelength at about 488 nm using a FACSCaliber (Beckton Dickson). A relative autofluorescence ratio of the senescent cells cultured in the presence of SB590885 to the negative control group is calculated.
As described in 1, 0.1 μM TAK-632 is added to the prepared senescent cells, which are cultured in the presence of TAK-632 for about 3 weeks. Cells treated with DMSO (Sigma-Adrich) alone are used as a negative control group.
As described in 3(2), autofluorescence in the senescent cells is measured and a relative autofluorescence ratio of the senescent cells cultured in the presence of TAK-632 to the negative control group is calculated.
As described in 1, 0.1 μM vemurafenib is added to the prepared senescent cells, which are cultured in the presence of vemurafenib for about 3 weeks. Cells treated with DMSO (Sigma-Adrich) alone are used as a negative control group.
As described in 3.(2), autofluorescence in the senescent cells is measured and a relative autofluorescence ratio of the senescent cells cultured in the presence of vemurafenib to the negative control group is calculated.

[3] = test system: senescent human dermal fibroblast (HDF) M11 cells; test: Mitochondrial reactive oxygen species (MitoSOX Red); conditions: 0.1 μM, about 3 weeks, vs DMSO
Protocol: as §1, §2
In order to measure mitochondrial function in senescent cells, the amount of reactive oxygen species (ROS) in the prepared senescent cells is measured using a MitoSOX™ Red Mitochondrial Superoxide indicator (Life technologies). A relative ROS amount of the senescent cells cultured in the presence of SB590885 to that of the negative control group is shown in FIG. 4B. […] Accordingly, SB590885 inhibits mitochondrial damage in senescent cells.
As described in 3(2), the amount of ROS in the senescent cells is measured. A relative ROS ratio of the senescent cells cultured in the presence of TAK-632 to the negative control group is calculated.
As described in 3.(2), the amount of ROS in the senescent cells is measured. A relative ROS ratio of the senescent cells cultured in the presence of vemurafenib to the negative control group is calculated.

[4] = test system: senescent human dermal fibroblast (HDF) M11 cells; test: Lysosome accumulation (LysoTracker Blue DND-22, FACS); conditions: 0.1 μM, about 3 weeks, vs DMSO
Protocol: as §1, §2
In order to measure lysosome accumulation in senescent cells, the prepared senescent cells are stained using a LysoTracker®Blue DND-22 (Life Technologies, Cat. No. L-7525). The amount of lysosome is quantified by measuring the fluorescent radiation having a wavelength of 422 nm while irradiating the stained senescent cells with rays having a wavelength at about 373 nm using a FACSCaliber (Beckton Dickson). The amount (%) of lysosome in the cells cultured in the presence of SB590885 relative to that of the negative control group is shown in FIG. 4C.
As described in 3(2), the amount of lysosomes in senescent cells is measured and the amount (%) of lysosome in the cells cultured in the presence of TAK-632 relative to that of the negative control group is shown in FIG. 5C.
As described in 3.(2), the amount of lysosomes in senescent cells is measured and the amount (%) of lysosome in the cells cultured in the presence of vemurafenib relative to that of the negative control group is shown in FIG. 6C.

Compound	proliferation rate higher than the negative control group [1]	autofluorescence relative to negative control group [2]	decrease in lipofuscin compared to negative control group [2]	ROS relative to negative control group [3]	decrease in the amount of ROS compared to negative control group [3]	decrease in lysosome accumulation compared to negative control group [4]
CN(C)CCOc1ccc(-c2nc(-c3ccncc3)c(-c3ccc4c(c3)CC/C4=N\O)[nH]2)cc1 [SB590885]	about 30%	about 28%	70%	about 38%	about 60%	about 25%
N#Cc1c(Oc2ccc(F)c(NC(=O)Cc3cccc(C(F)(F)F)c3)c2)ccc2nc(NC(=O)C3CC3)sc12 [TAK-632]	about 30%	–	~48%	–	~40%	~40%
CCCS(=O)(=O)Nc1ccc(F)c(C(=O)c2c[nH]c3ncc(-c4ccc(Cl)cc4)cc23)c1F [vemurafenib]	about 30%	–	about 60%	–	about 40%	about 40%

From patent publication US9763923B2, “Composition for reducing senescence of cell or subject including BRAF inhibitor and use thereof” (Samsung Electronics Co., Ltd., priority 2015, dated 2017)
